# “And” between values parts separate entries of the source, which are not always exact repeats. Equal values may be shown once. Read-outs that look alike come from different tables or passages of the source.
# B1: CYP1A2 (Rattus norvegicus) (protein)
# chain: MAFSQYISLAPELLLATAIFCLVFWVLRGTRTQVPKGLKSPPGPWGLPFIGHMLTLGKNPHLSLTKLSQQYGDVLQIRIGSTPVVVLSGLNTIKQALVKQGDDFKGRPDLYSFTLITNGKSMTFNPDSGPVWAARRRLAQDALKSFSIASDPTSVSSCYLEEHVSKEANHLISKFQKLMAEVGHFEPVNQVVESVANVIGAMCFGKNFPRKSEEMLNLVKSSKDFVENVTSGNAVDFFPVLRYLPNPALKRFKNFNDNFVLFLQKTVQEHYQDFNKNSIQDITGALFKHSENYKDNGGLIPQEKIVNIVNDIFGAGFETVTTAIFWSILLLVTEPKVQRKIHEELDTVIGRDRQPRLSDRPQLPYLEAFILEIYRYTSFVPFTIPHSTTRDTSLNGFHIPKECCIFINQWQVNHDEKQWKDPFVFRPERFLTNDNTAIDKTLSEKVMLFGLGKRRCIGEIPAKWEVFLFLAILLHQLEFTVPPGVKVDLTPSYGLTMKPRTCEHVQAWPRFSK
# Experiments:
# CYP1A2 [1] = molecular target: T1, CYP1A2 (Rattus norvegicus, UniProt P04799); details: cited from earlier work
# T1 sequence (P04799 1-513): B1 chain
# CYP1A2 [2] = molecular target: T1, CYP1A2; assay: In vitro cocktail CYP450 activity assay in rat liver microsomes, CYP1A2 (phenacetin probe)
# In short: (§1)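 Probe substrates were pooled in a single microsomal incubation, with each substrate concentration optimized to keep metabolite formation linear. Metabolites were quantified against isotope-labelled internal standards: hydroxybupropion-[D6] (OHBUP-[D6]) and 5 nM 4′-hydroxydiclofenac-[^13C6] (OHDIC-[^13C6]).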
# CYP3A4 [3] = details: cited from earlier work
# CYP3A4 [4] = assay: in vitro; details: for IC50: microsomes
# In short: as §1
# CYP2C19 = assay: in vitro; details: for IC50: microsomes
# In short: as §1
# CYP2B6 = assay: in vitro; details: for IC50: microsomes
# In short: as §1
# CYP2D6 = assay: in vitro; details: microsomes
# In short: as §1
# CYP2C9 = assay: in vitro; details: for IC50: microsomes
# In short: as §1
# CYP2E1 [5] = molecular target: T2, CYP2E1 (Rattus norvegicus, UniProt P05182); details: for IC50: microsomes
# CYP450s = assay: In vitro cocktail CYP450 activity assay, isozyme not given; format: in vitro ADME, SD rat
# Procedure: (OHBUP-[D6]) and 5 nM 4′-hydroxydiclofenac-[^13C6] (OHDIC-[^13C6]) as internal standards (ISs).
# CYP2E1 [6] = molecular target: T2, CYP2E1; details: IC50 CYP2E1, single components; RLM 0.2 mg/mL, 15 min, triplicate, mean ± SD
# in vivo = assay: in vivo; parameters: species or system Sprague-Dawley (SD) rats; details: Sprague-Dawley, plasma, rat
# Procedure: At each time, 0.5 mL of blood was collected in the heparin sodium tubes. Plasma was separated by centrifugation at 4000 rpm for 10 min and stored below −80 °C until bioanalysis. Oasis PRiME HLB SPE cartridges (1 cc/30 mg, Waters, Milford, MA, USA) were used to process the plasma samples (Supplementary Materials).
# The generic layout of instrumentation setup of the LVDI-UHPLC-MS/MS was conducted on a Shimadzu UHPLC system consisting of two LC-20ADXR pumps, a DGU-20A3R degasser, and a CBM-20A controller (Kyoto, Japan) with a SCIEX 4500 QTRAP mass spectrometer mounted with an electron spray ionization (ESI) interface as well as an electronic 6-port/2-channel valve (Foster City, CA, USA). Analyst software package (version 1.6.2, SCIEX) was implemented to control and synchronize the entire system, and also for data acquisition and processing. A single analytical run was fragmented into two phases, namely, loading and elution phases, by switching the electronic valve (Figure 2). At the loading phase, the valve was maintained at A-channel. The specimen aliquot of large volume delivered from the auto-sampler was captured onto a guard column. Meanwhile, the pumps were responsible for delivering the mobile phase at a high flow rate, aiming to dilute the sample solvent, thus facilitating the candidate constituents to concentrate on the pre-guard column. Then, the valve was automatically switched to the B-channel to trigger the elution phase. The trapped components were flushed from the pre-guard column into an analytical column, and underwent multiple reaction monitoring (MRM) analysis on the optimized LC gradients. The detailed information of LVDI-UHPLC-MS/MS analysis for pharmacokinetic and cocktail studies is shown in the Supplementary Materials section.
# not read = substrate: CCOc1ccc(NC(C)=O)cc1; assay: not read; details: other: probe substrate, PHE to dEtPHE, CYP1A2, n = 3; pH 7.4; 37.0 °C
# [7] = at the Cmax level in rat plasma, calculated from the dose–response curve
# T2 sequence (P05182 whole entry): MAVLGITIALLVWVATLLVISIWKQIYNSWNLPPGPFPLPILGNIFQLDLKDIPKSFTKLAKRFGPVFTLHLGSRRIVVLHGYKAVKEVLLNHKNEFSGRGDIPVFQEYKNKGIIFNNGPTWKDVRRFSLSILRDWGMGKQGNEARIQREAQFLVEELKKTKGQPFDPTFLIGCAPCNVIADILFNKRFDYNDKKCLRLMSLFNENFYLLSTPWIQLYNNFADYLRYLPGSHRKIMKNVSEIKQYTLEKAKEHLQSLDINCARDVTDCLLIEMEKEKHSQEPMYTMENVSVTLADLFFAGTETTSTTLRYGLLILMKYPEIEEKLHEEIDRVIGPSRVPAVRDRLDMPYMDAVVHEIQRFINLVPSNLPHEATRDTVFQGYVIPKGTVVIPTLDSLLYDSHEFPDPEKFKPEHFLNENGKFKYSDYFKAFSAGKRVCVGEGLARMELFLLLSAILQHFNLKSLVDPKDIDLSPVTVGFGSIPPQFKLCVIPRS
molecule,measurement,setting,value
"Cc1nc2c([nH]1)c(=O)n(C)c(=O)n2Cc1ccco1 [FUR, furafylline]",IC50,"CYP1A2 [1]; read-out: Reported IC50, positive inhibitor of CYP1A2, literature ref 9, 10,11",1.3 µM and 1.76 to 13.9 µM
same,IC50,CYP1A2 [2]; Tested IC50,0.597 ± 0.0514 µM
"O=c1c(O[C@@H]2O[C@H](CO)[C@@H](O)[C@H](O)[C@H]2O)c(-c2ccc(O)cc2)oc2cc(O)c(O[C@@H]3O[C@H](CO)[C@@H](O)[C@H](O)[C@H]3O)c(O)c12 [A13, 6-hydroxykaempferol-3,6-di-O-glucoside]",IC50,CYP2C19,48.9 ± 4.36 µM
same,IC50,CYP2B6,21 ± 2.31 µM
same,IC50,CYP2D6,37.1 ± 8.85 µM
same,IC50,CYP3A4 [4],58.5 ± 0.66 µM
same,IC50,CYP2C9,93 ± 2.56 µM
same,IC50,CYP2E1 [5],10.2 ± 0.65 µM
same,IC50,CYP1A2 [2]; microsomes,13.3 ± 2.27 µM
same,IC50,CYP450s,≤ 15 µM
"CCOc1ccc(NC(C)=O)cc1 [PHE, phenacetin]",Km,"CYP1A2 [1]; read-out: Reported Km, probe substrate PHE, CYP1A2, literature range ref 9",1.7 to 152 µM
"Cc1ncc2n1-c1ccc(Cl)cc1C(c1ccccc1F)=NC2 [MID, midazolam, reference compound]",Km,"CYP3A4 [3]; read-out: Reported Km, probe substrate MID, CYP3A4, literature range ref 9",1 to 14 µM
same,Km,"CYP3A4 [4]; SD, rat, pH 7.4",11 ± 1.51 µM
"O=C(/C=C/c1ccc(O)cc1)C1=C(O)C2=C(O[C@H]([C@@H](O)[C@H](O)[C@H](O)CO)[C@H]2C2=C(O)/C(=C(O)/C=C/c3ccc(O)cc3)C(=O)C(O)([C@@H]3O[C@H](CO)[C@@H](O)[C@H](O)[C@H]3O)C2=O)C(O)([C@@H]2O[C@H](CO)[C@@H](O)[C@H](O)[C@H]2O)C1=O (stereo partly drawn) [A8, anhydroxysafflor yellow B]",IC50,CYP2C19,111 ± 21.6 µM
same,IC50,CYP2B6,> 200 µM
same,IC50,CYP2D6,10.5 ± 1.11 µM
same,IC50,CYP3A4 [4],34.4 ± 9.16 µM
same,IC50,CYP2C9,1.21 ± 0.51 µM
same,IC50,CYP2E1 [5],9.06 ± 1.85 µM
same,IC50,CYP1A2 [2]; microsomes,> 200 µM
same,IC50,CYP450s,≤ 15 µM
"CC(C)=CCC[C@](C)(O[C@@H]1O[C@H](CO)[C@@H](O)[C@H](O)[C@H]1O)[C@H]1CC[C@]2(C)[C@@H]1[C@H](O)C[C@@H]1[C@@]3(C)CC[C@H](O)C(C)(C)[C@@H]3[C@@H](O[C@@H]3O[C@H](CO)[C@@H](O)[C@H](O)[C@H]3O[C@@H]3O[C@@H](C)[C@H](O)[C@@H](O)[C@H]3O)C[C@]12C [GRe, ginsenoside Re]",IC50,CYP2E1 [6],25.6 ± 9.03 µM
same,IC50 at 15 min,"CYP2C19; Sprague-Dawley, rat, pooled rat liver microsomes, pH 7.4, probe omeprazole (1.07 µM, in seven-probe cocktail), IC50 CYP2C19, single components, RLM 0.2 mg/mL, 15 min, triplicate, mean ± SD",50.5 ± 15.4 µM
same,Response (% control) CYP2C19,CYP2C19; [7],98.36 % control
same,IC50 at 15 min,"CYP2B6; Sprague-Dawley, rat, pooled rat liver microsomes, pH 7.4, probe bupropion (90 µM, in seven-probe cocktail), IC50 CYP2B6, single components, RLM 0.2 mg/mL, 15 min, triplicate, mean ± SD",39.4 ± 4.81 µM
same,Response (% control) CYP2B6,CYP2B6; [7],99.64 % control
same,IC50 at 15 min,"CYP2D6; Sprague-Dawley, rat, pH 7.4, IC50 CYP2D6",> 200 µM
same,IC50,"CYP3A4 [4]; Sprague-Dawley, rat, pH 7.4, IC50 CYP3A4, single components, RLM 0.2 mg/mL, 15 min, triplicate, mean ± SD",75.1 ± 7.24 µM
same,Response (% control) CYP3A4,CYP3A4 [4]; [7],99.99 % control
same,IC50 at 15 min,"CYP2C9; Sprague-Dawley, rat, pooled rat liver microsomes, pH 7.4, probe tolbutamide (18 µM, in seven-probe cocktail), IC50 CYP2C9, single components, RLM 0.2 mg/mL, 15 min, triplicate, mean ± SD",> 200 µM
same,Response (% control) CYP2E1,"CYP2E1 [5]; Sprague-Dawley, rat, 15 min, pH 7.4",97.35 % control
same,IC50,"CYP1A2 [2]; IC50 CYP1A2, single components, RLM 0.2 mg/mL, 15 min, triplicate, mean ± SD",94.4 ± 4.52 µM
same,Response (% control) CYP1A2,CYP1A2 [2]; [7],99.99 % control
same,concentration at […],in vivo; 0.083 h after oral CNP,0.24 ± 0.02 ng/mL
same,concentration at 0.25 h,in vivo; 0.25 h after oral CNP,0.25 ± 0.01 ng/mL
same,concentration at 0.5 h,in vivo; 0.5 h after oral CNP,0.33 ± 0.11 ng/mL
same,concentration at 1 h,in vivo; 1 h after oral CNP,0.24 ± 0.04 ng/mL
same,concentration at 1.5 h,in vivo; 1.5 h after oral CNP,0.24 ± 0.03 ng/mL
same,concentration at 2 h,in vivo; 2 h after oral CNP,0.23 ± 0.02 ng/mL
same,concentration at 3 h,in vivo; 3 h after oral CNP,0.28 ± 0.1 ng/mL
same,concentration at 4 h,in vivo; 4 h after oral CNP,0.28 ± 0.07 ng/mL
same,concentration at 6 h,in vivo; 6 h after oral CNP,0.23 ± 0.03 ng/mL
same,concentration at 8 h,in vivo; 8 h after oral CNP,0.14 ± 0.03 ng/mL
same,half-life,in vivo; po,5.99 ± 3.86 h
same,AUC(0-inf),"in vivo; po, 60 mg/kg",2.9 ± 0.6 ng·h/mL
same,AUC(0-t),"in vivo; po, 60 mg/kg",1.82 ± 0.19 ng·h/mL
same,Cmax,"in vivo; po, 60 mg/kg",0.29 ± 0.04 ng/mL
same,Tmax,"in vivo; po, 60 mg/kg",2.6 ± 0.89 h
same,half-life,"in vivo; po, 60 mg/kg",5.25 ± 2.27 h
same,concentration at 0.25 h,"in vivo; po, 60 mg·kg^−1",0.26 ± 0.02 ng/mL
same,concentration at 0.5 h,"in vivo; po, 60 mg·kg^−1",0.24 ± 0.02 ng/mL
same,concentration at 1 h,"in vivo; po, 60 mg·kg^−1",0.25 ± 0.02 ng/mL
same,concentration at 1.5 h,"in vivo; po, 60 mg·kg^−1",0.22 ± 0.02 ng/mL
same,concentration at 2 h,"in vivo; po, 60 mg·kg^−1",0.21 ± 0.01 ng/mL
same,concentration at 3 h,"in vivo; po, 60 mg·kg^−1",0.27 ± 0.04 ng/mL
same,concentration at 4 h,"in vivo; po, 60 mg·kg^−1",0.25 ± 0.05 ng/mL
same,concentration at 6 h,"in vivo; po, 60 mg·kg^−1",0.24 ± 0.06 ng/mL
same,concentration at 8 h,"in vivo; po, 60 mg·kg^−1",0.13 ± 0.01 ng/mL
"O=c1c(OC2O[C@H](CO)[C@@H](O)[C@H](O)[C@H]2O)c(-c2ccc(O)cc2)oc2cc(O)c(O)c(O)c12 (stereo partly drawn) [A6, 6-hydoxykaempferol-3-O-glucoside]",IC50,CYP2C19,53.67 ± 0.22 µM
same,IC50,CYP2B6,115 ± 3.04 µM
same,IC50,CYP2D6,19.5 ± 2.83 µM
same,IC50,CYP3A4 [4],26.4 ± 1.39 µM
same,IC50,CYP2C9,55.8 ± 3.4 µM
same,IC50,CYP2E1 [5],40.8 ± 1.65 µM
same,IC50,CYP1A2 [2]; microsomes,52.8 ± 1.93 µM
same,IC50,CYP450s,≤ 15 µM
B1,Km,not read,65.26 ± 14.35 µM

# From paper PMC7076352 (Pharmaceutics, 2020)
